Results reported in US12514267B2, “Oligosaccharide compositions for use as animal feed and methods of producing thereof” (DSM Nutritional Products, LLC, priority 2015, dated 2026).

System: nursery pigs
Experiment: Growth performance of nursery pigs: 0-42d BWG, ADG, ADFI, FCR, with and without Mecadox (Examples 34/35)
Format: in vivo
Experimental: Pigs: Approximately 3,240 pigs were placed in three rooms at a nursery farm with 27 pigs per pen and 15 pens per treatment using a randomized complete block design (a total of 8 treatments across 40 pens in each of 3 rooms). All pens were balanced with 14 gilts and 13 barrows. At weaning, weight, age and sow farm source were recorded. At weaning, pigs were placed with the same number of pigs from each sow farm per pen.
Allotment: Prior to allotment and each weighing event, standard weights were placed on each corner of the scale to ensure that the scale was correctly calibrated. At placement, the average weight of the pigs in each pen were determined and the data was provided as soon as possible for treatment allotment. At weaning, pens were ranked by average weight and weight blocks and pens were assigned to the ranked weights. Treatments were then randomly assigned within weight blocks. When the treatment assignments were done, pen assignments were provided also as soon as possible, and dietary treatments information was entered into the feeding system. Pigs were granted free access to feed and water throughout the trial.
Schedule: At arrival, the pigs were allotted to pens. A common pelleted diet was fed to all pigs for 7 days. This diet contained 55 ppm of Mecadox (50 g/ton). Dietary treatments were fed from day 7 to the end of the nursery phase (approximately 55 lb). Pens were allotted to dietary treatments on day 7. Diets were fed in two phases with the first phase from day 7 to 21 after weaning and the second phase from day 21 to the end of the nursery phase (day 21 to 42 after weaning).
Treatments: Dietary treatments were randomly assigned to 40 pens in each of 3 rooms for 5 replications per room and 15 replications total. The 8 treatments were structured as a 2×4 factorial with two diet types (with and without antibiotic; 55 ppm of Mecadox) and four levels of gluco-oligosaccharide (0, 200, 400 or 600 ppm). The gluco-oligosaccharides were prepared according to the procedures set forth in Examples above. The gluco-oligosaccharides were provided on a corn meal carrier, as described in Example 18, such that the 600 ppm dose was obtained with a 0.25% final diet inclusion rate (5 lb premix per ton final feed). All diets contained the same growth promoting levels of Cu and Zn at 200 ppm Cu and 2,000 ppm Zn, in the phase 2 diets and 200 ppm Cu in the phase 3 diet. The diets containing 0 and 0.25% of the premix containing the gluco-oligosaccharides were blended to form the intermediate treatments.
Diet Preparation: Diets were fed in meal form. The four diets required were the control diets for each diet type and the diets containing 0.25% gluco-oligosaccharide premix. The actual oligosaccharide levels in the test were 0, 200, 400, and 600 ppm with a carrier used such that the premix at 0.25% (5 lb/ton) will provide 600 ppm oligosaccharide.
Live Animal Data Collection: Pigs were weighed, counted and feed disappearance determined every 7 days during the experiment. Prior to each weighing event standard weights were placed on each corner of the scale to ensure proper calibration of the scale. Pig inventory, weight, removal and feed intake data were recorded and maintained throughout the trial. Data were collected on the standard data collection spreadsheet.
Statistical analysis: Pens were randomly allotted to treatments using body weight as a blocking factor. Weight block was added to the model as a random effect. Main effects and interaction between diet type and gluco-oligosaccharide level were determined. Data was analyzed for linear and quadratic effect of gluco-oligosaccharide levels.
The BWG benefit, ADG benefit, ADFI benefit, and FCR benefit were calculated for 0-42 days by taking the ratio of the respective values with respect to their corresponding controls and performing linear regression to determine the dose-effect of the gluco-oligosaccharide, resulting in the following regression equations set forth in Table 12 below. […]

[1] = 0-42d, Mecadox 55 ppm, Oligo 0 ppm
[2] = 0-42d, from regression equations, antibiotic growth promoter alone
[3] = nursery pigs, vs control, Mecadox 55 ppm, gluco-oligosaccharide 600 ppm without antibiotic (from regression)

COC(=O)N/N=C/c1c[n+]([O-])c2ccccc2[n+]1[O-] [Mecadox]
ADFI [1]: 1.37 lbs/day | ADG [1]: 0.93 lbs/day | BWG [1]: 40.69 lbs | FCR [1]: 1.47 lbs/lbs | ADFI Benefit [2]: 2.4% | ADG Benefit [2]: 3.2% | BWG Benefit [2]: 2.5% | FCR Benefit [2]: −0.2% | 0-42d FCR (nursery pigs, vs control, Mecadox 55 ppm, gluco-oligosaccharide 600 ppm): did not improve | improved 0-42d ADG [3]: 3.2% | improved 0-42d ADGI [3]: 2.4% | improved 0-42d BWG [3]: 2.5%
